Measurements as given in PMC7391767, “Molecular mechanisms underlying menthol binding and activation of TRPM8 ion channel” (Nature Communications, 2020).
“Also recorded” adds a separate entry of the source.

Molecular target: T1, wild-type TRPM8 (Mus musculus, UniProt Q8R4D5)
T1 construct: expressed in transfected cells; host or cells: HEK293T
Assay: whole-cell patch-clamp recording of ligand activation
Format: cell-based
Conditions: up to 5 mM
Experimental: Murine TRPM8 was used in this study. Point mutations were made by Fast Mutagenesis Kit V2 (SBS Genetech). Primers used to generate point mutations are summarized in Supplementary Table 2.
Cells were transiently transfected with cDNA constructs by Lipofectamine 3000 (Life Technologies) following the manufacturer’s protocol. Patch-clamp recordings were performed 1–2 days after transfection.
Patch-clamp recordings were performed with a HEKA EPC10 amplifier controlled by PatchMaster software (HEKA). Whole-cell recordings were performed at ±80 mV. Patch pipettes were prepared from borosilicate glass and fire-polished to resistance of ~4 MΩ. For whole-cell recording, serial resistance was compensated by 60%. For single-channel recordings, patch pipettes were fire-polished to a higher resistance of 6-to-10 MΩ and then recorded in the inside-out configuration. To maximize the chance of obtaining a patch with only one channel, single-channel recordings were performed about 8 h after transfection. A solution with 130 mM NaCl, 10 mM glucose, 0.2 mM EDTA, and 3 mM HEPES (pH 7.2) was used in both bath and pipette for either whole-cell or single-channel recordings. Membrane potential was clamped at +80 mV for single-channel recordings. Current was sampled at 10 kHz and filtered at 2.9 kHz. All recordings were performed at room temperature (22 °C) with the maximum variation of 1 °C.
Ligands such as menthol and its analogs were perfused to membrane patch by a gravity-driven system (RSC-200, Bio-Logic). Bath and ligand solution were delivered through separate tubes to minimize the mixing of solutions. Patch pipette was placed in front of the perfusion tube outlet.
Data from whole-cell recordings were analyzed in Igor Pro version 6.1 (WaveMatrix). EC50 values were derived from fitting a Hill equation to the concentration–response relationship. […] To distinguish these possibilities, dissociation constant (Kd) for ligand binding was estimated assuming the following gating scheme:1 C0↔KdC1↔LO, where L is the equilibrium constant for the final closed-to-open transition.

T1 sequence (Q8R4D5 whole entry): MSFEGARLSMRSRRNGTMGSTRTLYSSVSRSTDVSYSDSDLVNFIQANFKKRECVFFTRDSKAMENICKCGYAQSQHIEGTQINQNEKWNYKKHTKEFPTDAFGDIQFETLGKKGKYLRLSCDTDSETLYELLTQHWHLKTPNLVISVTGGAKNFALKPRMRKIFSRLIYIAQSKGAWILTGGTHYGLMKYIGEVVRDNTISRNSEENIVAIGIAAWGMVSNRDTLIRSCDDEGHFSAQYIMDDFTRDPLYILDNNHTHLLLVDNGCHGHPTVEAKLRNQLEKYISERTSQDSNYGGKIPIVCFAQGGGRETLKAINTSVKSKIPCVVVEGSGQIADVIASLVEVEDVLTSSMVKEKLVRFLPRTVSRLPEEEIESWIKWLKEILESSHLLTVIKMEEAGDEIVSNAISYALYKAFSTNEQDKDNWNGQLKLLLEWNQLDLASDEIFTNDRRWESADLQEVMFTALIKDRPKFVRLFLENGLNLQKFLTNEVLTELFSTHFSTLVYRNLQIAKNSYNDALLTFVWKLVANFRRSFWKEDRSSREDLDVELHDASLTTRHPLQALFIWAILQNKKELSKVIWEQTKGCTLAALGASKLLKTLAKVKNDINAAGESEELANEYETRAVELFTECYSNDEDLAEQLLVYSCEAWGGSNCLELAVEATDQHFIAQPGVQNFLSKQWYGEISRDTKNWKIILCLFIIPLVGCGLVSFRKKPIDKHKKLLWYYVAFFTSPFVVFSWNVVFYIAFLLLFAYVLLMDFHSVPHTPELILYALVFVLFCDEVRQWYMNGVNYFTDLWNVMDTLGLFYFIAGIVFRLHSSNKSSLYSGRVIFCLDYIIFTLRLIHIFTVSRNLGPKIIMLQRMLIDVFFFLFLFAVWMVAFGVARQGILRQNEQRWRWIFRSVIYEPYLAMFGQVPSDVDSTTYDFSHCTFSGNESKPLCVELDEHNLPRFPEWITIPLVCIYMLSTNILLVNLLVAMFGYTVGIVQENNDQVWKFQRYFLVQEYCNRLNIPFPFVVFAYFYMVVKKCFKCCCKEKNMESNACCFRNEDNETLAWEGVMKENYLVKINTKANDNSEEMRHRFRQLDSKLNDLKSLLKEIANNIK

With OC1CCCCC1 [cyclohexanol] the “activation of TRPM8 channel” value was “failed to open; also recorded: cannot activate”.
